Assay results from US20050043331A1, “Substituted 3-(2,5-disubstituted)pyridyl-4-aryl pyrroles for treating inflammatory diseases” (priority 2002, published 2005).
Like-named read-outs stand apart in the source and are kept apart here.

Tests used:
TNF-α [1] = assay: In-vitro whole cell assay for TNF-α inhibition (LPS-stimulated PBMC, ELISA); format: cell-based; details: TNF-α by ELISA
Description: Freshly obtained venous blood was anticoagulated with heparin, diluted with an equal volume of phosphate buffered saline (“PBS”) and placed in a sterile tube or other container. Aliquots (30 mL) of this mixture were transferred to centrifuge tubes, which were underlaid with Ficoll-Hypaque (15 mL). The prepared tubes were centrifuged at 400×g, without braking, for 30 min at room temperature. Approximately ½ to ⅔ of the platelet layer above the mononuclear cell band was removed with a pipette. The majority of the mononuclear cell layer was carefully removed using a pipette and these PBMC's were diluted with PBS and spun at 600×g for 15 min. The resulting PBMC's were washed with another portion of PBS and spun at 400×g for 10 min at room temperature. The recovered pellets were diluted in low endotoxin RPMI/1% FCS culture medium, and gave a cell concentration of 0.5-2.0×10^6 PMBC/ mL. A small volume of the suspension was removed for counting on a hemocytometer and the remaining preparation was centrifuged at 200×g for 15 min at room temperature. The recovered pelleted PMBC's were resuspended in RPMI/1% FCS to a concentration of 1.67×10^6/mL.
To run the assay, the PBMC suspension (180 μL) was transferred to duplicate wells of a 96-well flat-bottom microtiter plate and incubated for 1 h at 37° C. A solution of test compound (10 μL: prepared at 20× the desired final concentration) was added to each well and the plate was incubated for 1 h at 37° C. A solution (10 μL) of LPS in RPMI/1% FCS (200 ng/mL) was added and the wells were incubated overnight at 37° C. The supernate (100 μL) was removed from each well and diluted with RPMI/1% FCS (400 μL). The samples were analyzed for TNF-α using a commercial ELISA kit (Genzyme).

TNF-α [2] = assay: In vivo rodent assay for inhibition of LPS-induced TNF-α production; set-up: species or system Mice (BALB/cJ females); details: 10 mg/kg oral; for inhibition in vivo at 10 mg/kg: Mus musculus, po
Description: Mice (BALB/cJ females, Jackson Laboratories) or rats (Lewis males, Charles River) were fasted for 30 min. The animals were dosed orally on a mg/kg basis at a range of times prior to being injected intraperitoneally with LPS at 1 mg/kg and returned to their cages for 1 h. Animals were anesthetized by CO2, exsanguinated by cardiac puncture and whole blood collected (0.1-0.7 mL). The blood was allowed to clot and serum was transferred to a centrifuge tube. This sample was centrifuged, and serum was collected, aliquoted and frozen at −80° C. Samples were tested by commercial ELISA's for TNF-α (Endogen for mouse TNF-α and Biosource for rat TNF-α).

[3] = 0.5 h, 0.5 h, read-out: Mouse 10 mg/kg % inhib 0.5 h
[4] = 2 h, 2 h, read-out: Mouse 10 mg/kg % inhib 2 h

SMILES | IC50 (TNF-α [1]) | inhibition in vivo at 10 mg/kg (TNF-α [2]; [3]) | also measured
COC(=O)c1c(-c2ccc(F)cc2)c(-c2ccncc2)c(C2=CCNCC2)n1C [Cpd 7, 3-(4-Fluorophenyl)-1-methyl-4-(4-pyridinyl)-5-(1,2,3,6-tetrahydro-4-pyridinyl)-1H-pyrrole-2-carboxylic acid methyl ester] | 72 nM | 96% | 
COC(=O)c1c(-c2ccc(F)cc2)c(-c2ccncc2)c(N2CCN(S(C)(=O)=O)CC2)n1C [Cpd 12, 3-(4-Fluorophenyl)-1-methyl-5-[4-(methylsulfonyl)-1-piperazinyl]-4-(4-pyridinyl)-1H-pyrrole-2-carboxylic acid methyl ester] | 5860 nM | -29% | 
CCNC(=O)N1CCN(c2c(-c3ccncc3)c(-c3ccc(F)cc3)c(C(=O)OC)n2C)CC1 [Cpd 13, 5-[4-[(Ethylamino)carbonyl]-1-piperazinyl]-3-(4-fluorophenyl)-1-methyl-4-(4-pyridinyl)-1H-pyrrole-2-carboxylic acid methyl ester] | 2920 nM | -38% | 
O=C1CCCn2c(NCCN3CCOCC3)c(-c3ccncc3)c(-c3ccc(F)cc3)c21 [Cpd 24, 1-(4-Fluorophenyl)-6,7-dihydro-3-[[2-(4-morpholinyl)ethyl]amino]-2-(4-pyridinyl)-8(5H)-indolizinone] | 2560 nM | 51% | 
CON(C)C(=O)c1c(-c2ccc(F)cc2)c(-c2ccncc2)cn1C [Cpd 37, 3-(4-Fluorophenyl)-N-methoxy-N,1-dimethyl-4-(4-pyridinyl)-1H-pyrrole-2-carboxamide] | 5840 nM |  | 
CCCc1c(-c2ccnc(N[C@@H](C)c3ccccc3)n2)c(-c2ccc(F)cc2)cn1C(=O)OC(C)(C)C [Cpd 49] |  | -79% | 
COC(=O)c1c(-c2ccc(F)cc2)c(-c2ccncc2)c(N2CCC(NC(=O)OC(C)(C)C)C2)n1C (stereo not drawn) [Cpd 110] | 1660 nM |  | 
COC(=O)c1c(-c2ccc(F)cc2)c(-c2ccncc2)c(N2CCN(C(C)C)CC2)n1C [Cpd 126] | 1980 nM |  | 
COC(=O)c1c(-c2ccc(F)cc2)c(-c2ccncc2)c(NCCNC(=O)OC(C)(C)C)n1C [Cpd 132] | 1640 nM |  | 
COC(=O)c1c(-c2ccc(F)cc2)c(-c2ccncc2)c(NCCNC(C)=O)n1C [Cpd 135] | 1690 nM |  | 
COC(=O)C1CCn2c(I)c(-c3ccncc3)c(-c3ccc(F)cc3)c2C1=O (stereo not drawn) [Cpd 136] |  | 15% | 
COC(=O)c1c(-c2ccc(F)cc2)c(-c2ccncc2)c(-c2ccncc2)n1C [Cpd 137] |  | 51% | 
COC(=O)c1c(-c2ccc(F)cc2)c(-c2ccncc2)c(NCCN2CCNCC2)n1C [Cpd 140] |  | 77% | 
COC(=O)c1c(-c2ccc(F)cc2)c(-c2ccncc2)cn1CCN(C)C [Cpd 146] |  | -32% | 
COC(=O)c1c(-c2ccc(F)cc2)c(-c2ccncc2)c(NCCCN2CCOCC2)n1C [Cpd 149] |  | 64% | 
COC(=O)CCn1c(C#CCCO)c(-c2ccncc2)c(-c2ccc(F)cc2)c1C(=O)OC [Cpd 150] | 5280 nM |  | 
Cn1c(CO)c(-c2ccc(F)cc2)c(-c2ccncc2)c1N1CCN(C(=O)OC(C)(C)C)CC1 [Cpd 151] |  | 83% | 
CC(=O)N1CCN(c2c(-c3ccncc3)c(-c3ccc(F)cc3)c(-c3nnco3)n2C)CC1 [Cpd 157] |  | 19% | 
COC(=O)c1c(-c2ccncc2)c(-c2ccc(F)cc2)c(N(C)CCN2CCOCC2)n1C [Cpd 164] | 3510 nM |  | 
Cn1cc(-c2ccncc2)c(-c2ccc(F)cc2)c1C#N [Cpd 169] |  |  | Mouse 10 mg/kg % inhib 2 h (TNF-α [2]; 2 h, 10 mg/kg): 49%

The remaining compounds from weak to strong by IC50 (TNF-α [1]), led by results:

IC50 (TNF-α [1]) | SMILES | inhibition in vivo at 10 mg/kg (TNF-α [2]; [3]) | also measured
1490 nM | COC(=O)c1c(-c2ccc(F)cc2)c(-c2ccncc2)c(NC(C)=O)n1C [Cpd 142] |  | 
1450 nM | CC(O)c1c(-c2ccc(F)cc2)c(-c2ccncc2)cn1C (stereo not drawn) [Cpd 40, 3-(4-Fluorophenyl)-[…], 1-dimethyl-4-(4-pyridinyl)-1H-pyrrole-2-methanol] |  | 
1390 nM | COC(=O)c1c(-c2ccc(F)cc2)c(-c2ccncc2)c(NCCN2CCCC2)n1C [Cpd 118] |  | 
1310 nM | COC(=O)c1c(-c2ccc(F)cc2)c(-c2ccncc2)c(NC2CCN(Cc3ccccc3)CC2)n1C [Cpd 120] |  | 
1080 nM | CCCCNCc1c(-c2ccncc2)c(-c2ccc(F)cc2)cn1C [Cpd 123] |  | 
901 nM | CCCN1CCN(c2c(-c3ccncc3)c(-c3ccc(F)cc3)c(C(=O)OC)n2C)CC1 [Cpd 127] |  | 
756 nM | CCOC(=O)c1c(-c2ccc(F)cc2)c(-c2ccncc2)c(CCCN2CCOCC2)n1C [Cpd 19, 3-(4-Fluorophenyl)-1-methyl-5-[3-(4-morpholinyl)propyl]-4-(4-pyridinyl)-1H-pyrrole-2-carboxylic acid ethyl ester] | 34% | 
692 nM | COC(=O)c1c(-c2ccc(F)cc2)c(-c2ccncc2)cn1CCO [Cpd 165] |  | 
660 nM | Cn1c(C(O)c2ccccc2)c(-c2ccc(F)cc2)c(-c2ccncc2)c1N1CCNCC1 (stereo not drawn) [Cpd 117] |  | 
650 nM | COC(=O)c1c(-c2ccc(F)cc2)c(-c2ccncc2)c(Nc2ccc3c(c2)N(C(C)=O)CC3)n1C [Cpd 166] |  | 
597 nM | CC(=O)c1c(-c2ccc(F)cc2)c(-c2ccncc2)cn1C [Cpd 39, 1-[3-(4-Fluorophenyl)-1-methyl-4-(4-pyridinyl)-1H-pyrrol-2-yl]ethanone] |  | 
589 nM | CCCn1c(NCCN2CCOCC2)c(-c2ccncc2)c(-c2ccc(F)cc2)c1C(=O)OC [Cpd 153] |  | 
573 nM | COC(=O)c1c(-c2ccc(F)cc2)c(-c2ccncc2)c(N2CCN(CC3CCCCC3)CC2)n1C [Cpd 130] |  | 
351 nM | Cn1c(C#N)c(-c2ccc(F)cc2)c(-c2ccncc2)c1NCCN1CCOCC1 [Cpd 171] |  | 
186 nM | CCOC(=O)c1c(-c2ccc(F)cc2)c(-c2ccncc2)c(CCCO)n1C [Cpd 17, 3-(4-Fluorophenyl)-5-(3-hydroxypropyl)-1-methyl-4-(4-pyridinyl)-1H-pyrrole-2-carboxylic acid ethyl ester] |  | 
183 nM | COC(=O)c1c(-c2ccc(F)cc2)c(-c2ccncc2)c(N(C)CCN2CCSCC2)n1C [Cpd 162] |  | 
160 nM | O=C1OCCn2cc(-c3ccncc3)c(-c3ccc(F)cc3)c21 [Cpd 46, 8-(4-Fluorophenyl)-3,4-dihydro-7-(4-pyridinyl)-1H-pyrrolo[2,1-c][1,4]oxazin-1-one] |  | 
145 nM | COC(=O)c1c(-c2ccc(F)cc2)c(-c2ccncc2)c(NCCc2ccncc2)n1C [Cpd 154] |  | 
138 nM | O=C1CCn2cc(-c3ccncc3)c(-c3ccc(F)cc3)c21 [Cpd 22, 7-(4-Fluorophenyl)-2,3-dihydro-6-(4-pyridinyl)-1H-pyrrolizin-1-one] | 63% | inhibition in vivo at 10 mg/kg (TNF-α [2]; [4]): -3%
101 nM | OCc1[nH]cc(-c2ccc(F)cc2)c1-c1ccncc1 [Cpd 26, 4-(4-Fluorophenyl)-3-(4-pyridinyl)-1H-pyrrole-2-methanol] | -72% | 
77 nM | COC(=O)C1CCn2c(NCCN3CCOCC3)c(-c3ccncc3)c(-c3ccc(F)cc3)c2C1=O (stereo not drawn) [Cpd 23, 1-(4-Fluorophenyl)-5,6,7,8-tetrahydro-3-[[2-(4-morpholinyl)ethyl]amino]-8-oxo-2-(4-pyridinyl)-7-indolizinecarboxylic acid methyl ester] | 71% | 
47 nM | N#Cc1[nH]cc(-c2ccncc2)c1-c1ccc(F)cc1 [Cpd 158] |  | 
33 nM | COC(=O)c1c(-c2ccc(F)cc2)c(-c2ccncc2)c(N2CCNCC2)n1C [Cpd 8, 3-(4-Fluorophenyl)-1-methyl-5-(1-piperazinyl)-4-(4-pyridinyl)-1H-pyrrole-2-carboxylic acid methyl ester] | 73% | 
29 nM | COC(=O)C1Cn2cc(-c3ccncc3)c(-c3ccc(F)cc3)c2C1=O (stereo not drawn) [Cpd 21, 7-(4-Fluorophenyl)-2,3-dihydro-1-oxo-6-(4-pyridinyl)-1H-pyrrolizine-2-carboxylic acid methyl ester] | 44.7% | 
29 nM | COC(=O)CCCn1c(NCCN2CCOCC2)c(-c2ccncc2)c(-c2ccc(F)cc2)c1C(=O)OC [Cpd 23a] |  | 
21 nM | COC(=O)c1c(-c2ccc(F)cc2)c(-c2ccncc2)c(Nc2cccc(NC(C)=O)c2)n1C [Cpd 174] |  | 
5 nM | COC(=O)c1c(-c2ccc(F)cc2)c(-c2ccncc2)c(/N=C/N(C)C)n1C [Cpd 15] | 6% | inhibition in vivo at 10 mg/kg (TNF-α [2]; [4]): -21%
